Measurements: patent US9156829B2, “Cycloalkyl and heterocycloalkyl compounds as orexin receptor antagonists” (Takeda Pharmaceutical Company Limited, priority 2014, dated 2015)

Experiments:
human orexin receptor 2 = human orexin receptor 2 (Homo sapiens (Human), UniProt O43614); assay: Orexin antagonist activity, intracellular calcium FLIPR assay, RBL-2H3 cells expressing human orexin receptor 2; assay type: cell-based; conditions: RBL-2H3 cells stably expressing human orexin receptor 2; orexin-A at approx. 80% maximal response; compound added 15 minutes before; read-out: Human Orexin2R IC50
human orexin receptor 1 = human orexin receptor 1 (Homo sapiens (Human), UniProt O43613); assay: Orexin antagonist activity, intracellular calcium FLIPR assay, RBL-2H3 cells expressing human orexin receptor 1; assay type: cell-based; conditions: RBL-2H3 cells stably expressing human orexin receptor 1; orexin-A at approx. 80% maximal response; compound added 15 minutes before; read-out: Human Orexin1R IC50
human orexin receptor 1, sequence (O43613 whole entry): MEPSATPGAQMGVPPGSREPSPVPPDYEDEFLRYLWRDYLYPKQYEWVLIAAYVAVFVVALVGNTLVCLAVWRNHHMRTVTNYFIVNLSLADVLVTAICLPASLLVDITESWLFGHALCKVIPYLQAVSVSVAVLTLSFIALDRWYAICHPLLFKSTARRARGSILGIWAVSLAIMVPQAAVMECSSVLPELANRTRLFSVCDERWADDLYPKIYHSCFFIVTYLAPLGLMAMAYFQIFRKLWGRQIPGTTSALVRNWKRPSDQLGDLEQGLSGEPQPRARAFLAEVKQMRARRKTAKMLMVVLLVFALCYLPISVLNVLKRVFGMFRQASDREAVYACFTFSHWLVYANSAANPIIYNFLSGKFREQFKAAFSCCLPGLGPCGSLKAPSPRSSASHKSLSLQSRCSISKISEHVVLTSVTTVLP

human orexin receptor 2, sequence (O43614 whole entry): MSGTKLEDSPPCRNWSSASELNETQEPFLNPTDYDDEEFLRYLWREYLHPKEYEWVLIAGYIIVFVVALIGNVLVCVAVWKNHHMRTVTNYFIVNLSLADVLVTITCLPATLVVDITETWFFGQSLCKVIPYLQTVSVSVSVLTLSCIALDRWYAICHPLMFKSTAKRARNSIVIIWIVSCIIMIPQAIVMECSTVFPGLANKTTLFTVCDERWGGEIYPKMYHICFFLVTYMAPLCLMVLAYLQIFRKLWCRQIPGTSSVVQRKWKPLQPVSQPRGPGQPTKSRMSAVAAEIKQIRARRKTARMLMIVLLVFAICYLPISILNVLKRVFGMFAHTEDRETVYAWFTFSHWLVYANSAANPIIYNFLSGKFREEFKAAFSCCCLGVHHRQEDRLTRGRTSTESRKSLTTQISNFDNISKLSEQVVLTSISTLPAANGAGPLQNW

Compound | IC50 (human orexin receptor 2) [nM] | IC50 (human orexin receptor 1) [nM]
CC1(Nc2ccc(C(F)(F)F)cn2)CCCC1NC(=O)c1ncccc1-c1ncccn1 (centres unmarked) [Example 156, N-(2-Methyl-2-{[5-(trifluoromethyl)pyridin-2-yl]amino}cyclopentyl)-3-(pyrimidin-2-yl)pyridine-2-carboxamide] | > 10000 | 11
O=C(N[C@H]1CCC[C@@H]1Nc1cnc(C(F)(F)F)cn1)c1cc(F)ccc1-c1ncccn1 [Example 39, 5-Fluoro-2-(pyrimidin-2-yl)-N-[(1S,2S)-2-{[5-(trifluoromethyl)pyrazin-2-yl]amino}cyclopentyl]benzamide] | > 10000 | 81
C[C@]1(Nc2cnc(C(F)(F)F)cn2)CCC[C@@H]1NC(=O)c1c(Cl)cccc1-n1nccn1 [Example 87, 2-Chloro-N-[(1S,2S)-2-methyl-2-{[5-(trifluoromethyl)pyrazin-2-yl]amino}cyclopentyl]-6-(2H-1,2,3-triazol-2-yl)benzamide] | > 10000 | 8
O=C(N[C@H]1CCC[C@@H]1Nc1ncc(C(F)(F)F)nc1C1CC1)c1ncccc1-c1ncccn1 [Example 143, N-[(1S,2S)-2-{[3-Cyclopropyl-5-(trifluoromethyl)pyrazin-2-yl]amino}cyclopentyl]-3-(pyrimidin-2-yl)pyridine-2-carboxamide] | > 10000 | 49
O=C(N[C@H]1CCC[C@@H]1Nc1ncc(C(F)(F)F)cc1F)c1ccccc1-c1ncccn1 [Example 138, N-[(1S,2S)-2-{[3-Fluoro-5-(trifluoromethyl)pyridin-2-yl]amino}cyclopentyl]-2-(pyrimidin-2-yl)benzamide] | > 10000 | 30
Cc1ccc(-n2nccn2)c(C(=O)N[C@H]2CCC[C@@H]2Nc2cnc(Cl)cn2)c1 [Example 9, N-[(1S,2S)-2-[(5-Chloropyrazin-2-yl)amino]cyclopentyl]-5-methyl-2-(2H-1,2,3-triazol-2-yl)benzamide] | > 10000 | 340
O=C(N[C@H]1CCC[C@@H]1Nc1ncc(C(F)(F)F)cc1F)c1ccccc1-n1nccn1 [Example 105, N-[(1S,2S)-2-{[3-Fluoro-5-(trifluoromethyl)pyridin-2-yl]amino}cyclopentyl]-2-(2H-1,2,3-triazol-2-yl)benzamide] | > 10000 | 39
CC1(Nc2ncc(C(F)(F)F)cn2)CCCC1NC(=O)c1ccccc1-n1nccn1 (single isomer, unassigned) [Example 94, N-(2-Methyl-2-{[5-(trifluoromethyl)pyrimidin-2-yl]amino}cyclopentyl)-2-(2H-1,2,3-triazol-2-yl)benzamide] | > 10000 | 28
O=C(N[C@H]1CCC[C@@H]1Nc1cnc(C(F)(F)F)cn1)c1c(F)cccc1C1CC1 [Example 66, 2-Cyclopropyl-6-fluoro-N-[(1S,2S)-2-{[5-(trifluoromethyl)pyrazin-2-yl]amino}cyclopentyl]benzamide] | > 10000 | 180
Cc1noc(-c2ccccc2C(=O)N[C@H]2CCC[C@@H]2Nc2cnc(C(F)(F)F)cn2)n1 [Example 15, 2-(3-Methyl-1,2,4-oxadiazol-5-yl)-N-[(1S,2S)-2-{[5-(trifluoromethyl)pyrazin-2-yl]amino}cyclopentyl]benzamide] | > 10000 | 49
O=C(N[C@H]1CCC[C@@H]1Nc1ncc(C(F)(F)F)cn1)c1ccccc1Cl [Example 70, 2-Chloro-N-[(1S,2S)-2-{[5-(trifluoromethyl)pyrimidin-2-yl]amino}cyclopentyl]benzamide] | > 10000 | 678
CC1(Nc2ccc(OC(F)(F)F)cn2)CCCC1NC(=O)c1ccccc1-n1nccn1 (centres unmarked) [Example 96, N-(2-Methyl-2-{[5-(trifluoromethoxy)pyridin-2-yl]amino}cyclopentyl)-2-(2H-1,2,3-triazol-2-yl)benzamide] | 1360 | 86
O=C(N[C@H]1CCC[C@@H]1Nc1ccc(C(F)(F)F)cn1)c1c(F)cccc1F [Example 72, 2,6-Difluoro-N-[(1S,2S)-2-{[5-(trifluoromethyl)pyridin-2-yl]amino}cyclopentyl]benzamide] | > 10000 | 479
Cc1ccc(-n2nccn2)c(C(=O)N[C@H]2CCC[C@@H]2Nc2ccc(C(F)(F)F)nc2)c1 [Example 67, 5-Methyl-2-(2H-1,2,3-triazol-2-yl)-N-[(1S,2S)-2-{[6-(trifluoromethyl)pyridin-3-yl]amino}cyclopentyl]benzamide] | > 10000 | 891
O=C(NC1CC(F)(F)CC1Nc1ccc(C(F)(F)F)cn1)c1ccccc1-n1nccn1 (single isomer, unassigned) [Example 129, N-(4,4-Difluoro-2-{[5-(trifluoromethyl)pyridin-2-yl]amino}cyclopentyl)-2-(2H-1,2,3-triazol-2-yl)benzamide] | 8750 | 633
O=C(NC1CCCC1Cc1cc(C(F)(F)F)ccn1)c1ccccc1-n1nccn1 (centres unmarked) [Example 22, 2-(2H-1,2,3-Triazol-2-yl)-N-(2-{[4-(trifluoromethyl)pyridin-2-yl]methyl}cyclopentyl)benzamide] | 6160 | 665

Compound | IC50 (human orexin receptor 2) [nM] | IC50 (human orexin receptor 1) [nM]
CC1(Nc2ccc(C(F)(F)F)cn2)CCCC1NC(=O)c1ncccc1-n1nccn1 (centres unmarked) [Example 155, N-(2-Methyl-2-{[5-(trifluoromethyl)pyridin-2-yl]amino}cyclopentyl)-3-(2H-1,2,3-triazol-2-yl)pyridine-2-carboxamide] | > 10000 | 8
CCOc1cccnc1C(=O)N[C@H]1CCC[C@@H]1Nc1cnc(C(F)(F)F)cn1 [Example 60, 3-Ethoxy-N-[(1S,2S)-2-{[5-(trifluoromethyl)pyrazin-2-yl]amino}cyclopentyl]pyridine-2-carboxamide] | > 10000 | 852
O=C(N[C@H]1CCC[C@@H]1Nc1cnc(C(F)(F)F)cn1)c1ccccc1-c1ncccn1 [Example 38, 2-(Pyrimidin-2-yl)-N-[(1S,2S)-2-{[5-(trifluoromethyl)pyrazin-2-yl]amino}cyclopentyl]benzamide] | > 10000 | 49
COc1cccc(OC)c1C(=O)N[C@H]1CCC[C@@H]1Oc1cc(C(F)(F)F)ccn1 [Example 21, 2,6-Dimethoxy-N-[(1S,2S)-2-{[4-(trifluoromethyl)pyridin-2-yl]oxy}cyclopentyl]benzamide] | 6420 | 576
O=C(N[C@H]1CCC[C@@H]1Nc1ccc(C(F)(F)F)cn1)c1cccc(F)c1-n1nccn1 [Example 98, 3-Fluoro-2-(2H-1,2,3-triazol-2-yl)-N-[(1S,2S)-2-{[5-(trifluoromethyl)pyridin-2-yl]amino}cyclopentyl]benzamide] | > 10000 | 160
CC1(Nc2ncc(C(F)(F)F)cn2)CCCC1NC(=O)c1ccccc1-n1nccn1 (centres unmarked) [Example 93, N-(2-Methyl-2-{[5-(trifluoromethyl)pyrimidin-2-yl]amino}cyclopentyl)-2-(2H-1,2,3-triazol-2-yl)benzamide] | > 10000 | 35
O=C(N[C@H]1CCC[C@@H]1Nc1cnc(C(F)(F)F)cn1)c1c(-n2nccn2)ccc(F)c1F [Example 56, 2,3-Difluoro-6-(2H-1,2,3-triazol-2-yl)-N-[(1S,2S)-2-{[5-(trifluoromethyl)pyrazin-2-yl]amino}cyclopentyl]benzamide] | > 10000 | 166
O=C(N[C@H]1CCC[C@@H]1Nc1cnc(C(F)(F)F)cn1)c1c(Cl)cccc1-n1nccn1 [Example 40, 2-Chloro-6-(2H-1,2,3-triazol-2-yl)-N-[(1S,2S)-2-{[5-(trifluoromethyl)pyrazin-2-yl]amino}cyclopentyl]benzamide] | > 10000 | 35
O=C(N[C@H]1CCC[C@@H]1Nc1ncc(C(F)(F)F)cc1F)c1ncccc1-n1nccn1 [Example 123, N-[(1S,2S)-2-{[3-Fluoro-5-(trifluoromethyl)pyridin-2-yl]amino}cyclopentyl]-3-(2H-1,2,3-triazol-2-yl)pyridine-2-carboxamide] | > 10000 | 18
O=C(N[C@H]1CCC[C@@H]1Nc1cnc(C(F)(F)F)cn1)c1ncccc1N1CCCCC1 [Example 51, 3-(Piperidin-1-yl)-N-[(1S,2S)-2-{[5-(trifluoromethyl)pyrazin-2-yl]amino}cyclopentyl]pyridine-2-carboxamide] | > 10000 | 301
O=C(N[C@H]1CCC[C@@H]1Nc1cnc(C(F)(F)F)cn1)c1cc(Cl)ccc1-n1ccnn1 [Example 55, 5-Chloro-2-(1H-1,2,3-triazol-1-yl)-N-[(1S,2S)-2-{[5-(trifluoromethyl)pyrazin-2-yl]amino}cyclopentyl]benzamide] | > 10000 | 761
Cc1noc(-c2ccccc2C(=O)N[C@H]2CCC[C@@H]2Nc2ncc(C(F)(F)F)cn2)n1 [Example 16, 2-(3-Methyl-1,2,4-oxadiazol-5-yl)-N-[(1S,2S)-2-{[5-(trifluoromethyl)pyrimidin-2-yl]amino}cyclopentyl]benzamide] | > 10000 | 54
C[C@]1(Nc2cnc(C(F)(F)F)cn2)CCC[C@@H]1NC(=O)c1ccccc1-n1nccn1 [Example 81, N-[(1S,2S)-2-Methyl-2-{[5-(trifluoromethyl)pyrazin-2-yl]amino}cyclopentyl]-2-(2H-1,2,3-triazol-2-yl)benzamide] | > 10000 | 7
O=C(N[C@H]1CCC[C@@H]1Nc1cnc(C(F)(F)F)cn1)c1c(F)cccc1-n1nccn1 [Example 32, 2-Fluoro-6-(2H-1,2,3-triazol-2-yl)-N-[(1S,2S)-2-{[5-(trifluoromethyl)pyrazin-2-yl]amino}cyclopentyl]benzamide] | > 10000 | 32
O=C(NC1CCCC1Cc1ccc(C(F)(F)F)cn1)c1ccccc1-n1nccn1 (single isomer, unassigned) [Example 25, 2-(2H-1,2,3-Triazol-2-yl)-N-(2-{[5-(trifluoromethyl)pyridin-2-yl]methyl}cyclopentyl)benzamide] | > 10000 | 472
